Reference: ChEMBL document CHEMBL3885861, “Open TG-GATES”

Organism: Rattus norvegicus
Assay: Open TG-GATES - Regimen: Single
Format: toxicity, organism-based, Sprague-Dawley
Parameters: regimen Single, gender Male, age 6 weeks
Details: in vivo, iv, route intravenous injection; for LIVER: tissue Liver; for A/G / ALP / ALT / AST / BUN / CRE / Ca / Cl / DBIL / GLC / IP / K / LDH / Na / PL / RALB / TBIL / TC / TG / TP / gamma-GTP: tissue Plasma; for APTT / Bas / Eos / Fbg / Hb / Ht / Lym / MCH / MCHC / MCV / Mono / Neu / PT / Plat / RBC / Ret / WBC: tissue Blood; for KIDNEY_L / KIDNEY_R / KIDNEY_TOTAL: tissue Kidney
[1] = 2 mg/kg, 3 h, dose level Middle
[2] = 2 mg/kg, 6 h, dose level Middle

SMILES: C[C@@H]1[C@H](O)[C@@H](C)/C=C/C=C/C=C/C=C/C=C/C=C/C=C/[C@H](O[C@@H]2O[C@H](C)[C@@H](O)[C@H](N)[C@@H]2O)C[C@@H]2O[C@](O)(C[C@@H](O)C[C@@H](O)[C@H](O)CC[C@@H](O)C[C@@H](O)CC(=O)O[C@H]1C)C[C@H](O)[C@H]2C(=O)O [AMPHOTERICIN B]
- LIVER (1 mg/kg, 9 h, dose level Low): 8.4 g
- A/G (1 mg/kg, 9 h, dose level Low): 0.8
- ALP (1 mg/kg, 9 h, dose level Low): 1344.2 IU/L
- ALT (1 mg/kg, 9 h, dose level Low): 33 IU/L
- AST (1 mg/kg, 9 h, dose level Low): 85 IU/L
- BUN (1 mg/kg, 9 h, dose level Low): 16.6 mg/dL
- CRE (1 mg/kg, 9 h, dose level Low): 0.1 mg/dL
- Ca (1 mg/kg, 9 h, dose level Low): 10.6 mg/dL
- Cl (1 mg/kg, 9 h, dose level Low): 106.6 meq/L
- DBIL (1 mg/kg, 9 h, dose level Low): 0.012 mg/dL
- GLC (1 mg/kg, 9 h, dose level Low): 161.4 mg/dL
- IP (1 mg/kg, 9 h, dose level Low): 10.2 mg/dL
- K (1 mg/kg, 9 h, dose level Low): 3.8 meq/L
- LDH (1 mg/kg, 9 h, dose level Low): 53.6 IU/L
- Na (1 mg/kg, 9 h, dose level Low): 142.8 meq/L
- PL (1 mg/kg, 9 h, dose level Low): 122.8 mg/dL
- RALB (1 mg/kg, 9 h, dose level Low): 2.5 g/dL
- TBIL (1 mg/kg, 9 h, dose level Low): 0.07 mg/dL
- TC (1 mg/kg, 9 h, dose level Low): 75.8 mg/dL
- TG (1 mg/kg, 9 h, dose level Low): 31.4 mg/dL
- TP (1 mg/kg, 9 h, dose level Low): 5.6 g/dL
- gamma-GTP (1 mg/kg, 9 h, dose level Low): 1.6 IU/L
- TERMINAL_BW (1 mg/kg, 24 h, dose level Low): 224.5 g
- APTT (1 mg/kg, 24 h, dose level Low): 14.8 s
- Bas (1 mg/kg, 24 h, dose level Low): 0%
- Eos (1 mg/kg, 24 h, dose level Low): 1%
- Fbg (1 mg/kg, 24 h, dose level Low): 286.6 mg/dL
- Hb (1 mg/kg, 24 h, dose level Low): 13.3 g/dL
- Ht (1 mg/kg, 24 h, dose level Low): 39.7%
- Lym (1 mg/kg, 24 h, dose level Low): 79.8%
- MCH (1 mg/kg, 24 h, dose level Low): 21.2 pg
- MCHC (1 mg/kg, 24 h, dose level Low): 33.6%
- MCV (1 mg/kg, 24 h, dose level Low): 63.1 fL
- Mono (1 mg/kg, 24 h, dose level Low): 2.2%
- Neu (1 mg/kg, 24 h, dose level Low): 16.6%
- PT (1 mg/kg, 24 h, dose level Low): 12 s
- Plat (1 mg/kg, 24 h, dose level Low): 135.9 x10_4/uL
- RBC (1 mg/kg, 24 h, dose level Low): 628.6 x10_4/ul
- Ret (1 mg/kg, 24 h, dose level Low): 7.1%
- WBC (1 mg/kg, 24 h, dose level Low): 100.8 x10_2/uL
- KIDNEY_L (1 mg/kg, 24 h, dose level Low): 1 g
- KIDNEY_R (1 mg/kg, 24 h, dose level Low): 1 g
- KIDNEY_TOTAL (1 mg/kg, 24 h, dose level Low): 1.9 g
- LIVER (1 mg/kg, 24 h, dose level Low): 10.5 g
- A/G (1 mg/kg, 24 h, dose level Low): 0.8
- ALP (1 mg/kg, 24 h, dose level Low): 1710.6 IU/L
- ALT (1 mg/kg, 24 h, dose level Low): 39.8 IU/L
- AST (1 mg/kg, 24 h, dose level Low): 67.8 IU/L
- BUN (1 mg/kg, 24 h, dose level Low): 17.2 mg/dL
- CRE (1 mg/kg, 24 h, dose level Low): 0.2 mg/dL
- Ca (1 mg/kg, 24 h, dose level Low): 11 mg/dL
- Cl (1 mg/kg, 24 h, dose level Low): 105.6 meq/L
- DBIL (1 mg/kg, 24 h, dose level Low): 0.02 mg/dL
- GLC (1 mg/kg, 24 h, dose level Low): 161.8 mg/dL
- IP (1 mg/kg, 24 h, dose level Low): 8.2 mg/dL
- K (1 mg/kg, 24 h, dose level Low): 3.9 meq/L
- LDH (1 mg/kg, 24 h, dose level Low): 50.4 IU/L
- Na (1 mg/kg, 24 h, dose level Low): 144 meq/L
- PL (1 mg/kg, 24 h, dose level Low): 143.8 mg/dL
- RALB (1 mg/kg, 24 h, dose level Low): 2.7 g/dL
- TBIL (1 mg/kg, 24 h, dose level Low): 0.056 mg/dL
- TC (1 mg/kg, 24 h, dose level Low): 79.4 mg/dL
- TG (1 mg/kg, 24 h, dose level Low): 92.2 mg/dL
- TP (1 mg/kg, 24 h, dose level Low): 5.8 g/dL
- gamma-GTP (1 mg/kg, 24 h, dose level Low): 1.8 IU/L
- TERMINAL_BW [1]: 220.8 g
- APTT [1]: 17.1 s
- Bas [1]: 0%
- Eos [1]: 1%
- Fbg [1]: 283 mg/dL
- Hb [1]: 13.7 g/dL
- Ht [1]: 38.4%
- Lym [1]: 69%
- MCH [1]: 20.9 pg
- MCHC [1]: 35.8%
- MCV [1]: 58.4 fL
- Mono [1]: 4%
- Neu [1]: 25%
- PT [1]: 12.6 s
- Plat [1]: 117.6 x10_4/uL
- RBC [1]: 657 x10_4/ul
- Ret [1]: 6.8%
- WBC [1]: 144 x10_2/uL
- KIDNEY_L [1]: 1 g
- KIDNEY_R [1]: 0.9 g
- KIDNEY_TOTAL [1]: 1.9 g
- LIVER [1]: 10.3 g
- A/G [1]: 0.8
- ALP [1]: 1456 IU/L
- ALT [1]: 41 IU/L
- AST [1]: 72 IU/L
- BUN [1]: 31 mg/dL
- CRE [1]: 0.2 mg/dL
- Ca [1]: 11 mg/dL
- Cl [1]: 106 meq/L
- DBIL [1]: 0.01 mg/dL
- GLC [1]: 186 mg/dL
- IP [1]: 10.5 mg/dL
- K [1]: 4.4 meq/L
- LDH [1]: 71 IU/L
- Na [1]: 141 meq/L
- PL [1]: 134 mg/dL
- RALB [1]: 2.5 g/dL
- TBIL [1]: 0.07 mg/dL
- TC [1]: 78 mg/dL
- TG [1]: 41 mg/dL
- TP [1]: 5.5 g/dL
- gamma-GTP [1]: 2 IU/L
- TERMINAL_BW [2]: 211.7 g
- APTT [2]: 15.8 s
- Bas [2]: 0.2%
- Eos [2]: 0%
- Fbg [2]: 236 mg/dL
- Hb [2]: 14.3 g/dL
- Ht [2]: 41.1%
- Lym [2]: 54.8%
- MCH [2]: 21.2 pg
- MCHC [2]: 35%
- MCV [2]: 60.7 fL
- Mono [2]: 3.2%
- Neu [2]: 40.8%
- PT [2]: 12.8 s
- Plat [2]: 138.8 x10_4/uL
- RBC [2]: 676.8 x10_4/ul
- Ret [2]: 8.1%
- WBC [2]: 102.6 x10_2/uL
- KIDNEY_L [2]: 1 g
- KIDNEY_R [2]: 1 g
- KIDNEY_TOTAL [2]: 2.1 g
- LIVER [2]: 9.1 g
- A/G [2]: 0.9
- ALP [2]: 1566.8 IU/L
- ALT [2]: 197 IU/L
- AST [2]: 407 IU/L
- BUN [2]: 43.8 mg/dL
- CRE [2]: 0.4 mg/dL
- Ca [2]: 11 mg/dL
- Cl [2]: 107 meq/L
- DBIL [2]: 0.0175 mg/dL
- GLC [2]: 196.8 mg/dL
